Source: patent US4324894A, “Aminoisoquinoline derivatives” (Egyt Gyogyszervegyeszeti Gyar, priority 1979, dated 1982)

Legend:
Type in all cases: in vivo
[1] = system: narcosis developed with hexobarbital; test: Potentiation of the narcosis developed with hexobarbital; settings: mice; for ED50: Mus musculus, po; for Therapeutic index: p.o., corresponds to LD50/ED50
Procedure: The narcosis potentiating effects of the novel compounds having the formula (I) were studied by the method of Kaergaard and al., Arch. Int. […] The compounds studied were administered orally to groups of mice consisting of 6 animals each. To the control group, 20 ml/kg of 0.9 percent sodium chloride solution was orally administered. Then, the animals were treated with an intravenous dosage of 40 mg/kg of hexobarbital/5-(1-cyclohexenyl)-1,5-dimethylbarbituric acid/. According to our evaluation method, a 150 percent prolongation of sleeping period in relation to the control group was regarded as a positive response.
The number of animals with positive responses was related to the total number of animals treated.

[2] = Acute toxicity on mice, oral; settings: mouse, in vivo, po, mice weighing 18 to 22 g, orally
Procedure: (§1) The acute toxicity of the aminoisoquinoline derivatives of the formula (I) were determined on mice weighing 18 to 22 g. The compounds were administered orally. The LD50 values are summarized in Table I. Toxicity data for meprobamate [2-methyl-2-propylpropane-1,3-dioldicarbamate] and phenylbutazon [4-butyl-1,2-diphenylpyrazolidine-3,5-dione] used as reference substances in the pharmacological tests are also given in Table I.

[3] = system: mice; test: Acute toxicity on mice, oral; settings: mice weighing 18 to 22 g, orally
Procedure: as §1

[4] = orally, hexobarbital 40 mg/kg intravenous, positive response = 150 percent prolongation of sleeping period in relation to control

Compound `Cc1c(N)nc(N2CCOCC2)c2ccccc12` [Example 1, 1-morpholinyl-3-amino-4-methylisoquinoline] has an ED50 [1, 4] of 100 mg/kg, a Therapeutic index [1] of 20 and an LD50 [2] of 2000 mg/kg.

Compound `Cc1c(N)nc(N2CCN(c3ccccn3)CC2)c2ccccc12` [Example 2, 1-/4'-(2"-pyridyl)-1'-piperazinyl/-3-amino-4-methylisoquinoline] has an ED50 [1, 4] of 74 mg/kg, a Therapeutic index [1] of 27 and an LD50 [2] of 2000 mg/kg.

Work on `Cc1c(N)nc(N2CCN(c3ccccn3)CC2)c2ccccc12` [Example 3, 1-/4'-(2"-pyridyl)-1'-piperazinyl/-3-amino-4-methylisoquinoline bis/ethanesulfonate/] yielded an ED50 p.o. [1, 4] of 140 mg/kg, a Therapeutic index [1] of 14.3 and an LD50 p.o. [3] of 2000 mg/kg.

Work on `Nc1cc2ccccc2c(N2CCOCC2)n1` [Example 4, 1-morpholinyl-3-aminoisoquinoline] yielded an LD50 [2] greater than 2000 mg/kg.

Work on `Nc1cc2ccccc2c(N2CCOCC2)n1` [Example 5, 1-morpholinyl-3-aminoisoquinoline ethanesulfonate] yielded an LD50 p.o. [3] of 2000 mg/kg.

With `Nc1cc2ccccc2c(N2CCN(c3ccccn3)CC2)n1` [Example 6, 1-/4'-(2"-pyridyl)-piperazin-1'-yl/-3-aminoisoquinoline] the ED50 [1, 4] was 140 mg/kg, the Therapeutic index [1] was 14.3 and the LD50 [2] was 2000 mg/kg.

In the case of `CCCC(C)(COC(N)=O)COC(N)=O` [Meprobamate, 2-methyl-2-propylpropane-1,3-dioldicarbamate, reference compound], the ED50 [1, 4] is reported as 260 mg/kg and the Therapeutic index [1] is reported as 4.2.
